These are literature values, as cited in patent US20210299023A1, “COMPOSITIONS AND METHODS FOR HAIR GROWTH” (Allergan, Inc., priority 2010, published 2021).

For series [1], the system named is eyelash. To be noted: healthy patients.
Series [2] concerns bald scalp of macaques. To be noted: 0.05% latanoprost.

With `CCNC(=O)CCC/C=C\C[C@@H]1[C@@H](/C=C/[C@@H](O)CCc2ccccc2)[C@H](O)C[C@@H]1O` [Bimatoprost, bimatoprost], the eyelash growth entry in series [1] is “increased length, thickness, and darkness”.
For `CC(C)OC(=O)CCC/C=C\C[C@@H]1[C@@H](CC[C@@H](O)CCc2ccccc2)[C@H](O)C[C@@H]1O` [latanoprost], the hair growth result in series [2] is listed as “significant hair growth”. Moreover, the “density and thickness of hair” value in series [2] (after 3 months of treatment) is listed as “increased significantly”.
